Like-named read-outs stand apart in the source and are kept apart here.

Data set [1] deals with pregnant Wistar Han rats. Kind of data set: Embryo-fetal development study of compound 16 by oral gavage in Wistar Han rats. The data set is classed as in vivo. Conditions: 125 and 250 mg/kg/day, GD 6 to 17, rats. Here is the method:
(§1) The potential of compound 16 to induce developmental toxicity after maternal exposure during the critical period of organogenesis (GD 6 through 17) were evaluated, maternal toxicity at the exposure levels tested was characterized, and a no observed-adverse-effect level (NOAEL) for maternal toxicity and developmental toxicity following oral administration in Wistar Han rats was determined.
(§2) Rats were necropsied and cesarean sectioned on GD 21. […] Any macroscopic abnormalities were noted. Pregnancy status was determined. […] The thoracic and abdominal cavities were opened and dissected using a technique described by Stuckhardt and Poppe (1984). Fetal kidneys were examined and graded for renal papillae development (Woo and Hoar, 1972). The heads from these fetuses were removed and placed in Harrison's fixative for soft tissue examination using the Wilson sectioning technique (Wilson, 1965). The remaining fetuses (approximately one-half from each litter), were eviscerated, fixed in 100% ethyl alcohol, macerated in potassium hydroxide and stained with Alizarin Red S by a method similar to that described by Dawson (1926) for subsequent examination of skeletons.

Assay in data set [2]: as above
The class given is in vivo. Conditions: female, rat, in vivo; pregnant Wistar Han rats, once daily oral gavage GD 6 to 17, definitive study; read-out: no-observed-adverse-effect level (NOAEL) for maternal toxicity and embryofetal development. As to the method: as §1, §2

The nature of data set [3]: Oral gavage embryo-fetal development study with compound 16 in rabbits. Conditions: female, New Zealand White, rabbit, in vivo, po. Here is the method: (§3) The effects of compound 16 on pregnant New Zealand White (NZW) rabbits and the development of the embryo consequent to exposure of the female from implantation to closure of the hard palate (Gestation Days [GD] 7 through 19) was evaluated. Compound 16 was administered to 4 groups of pregnant rabbits (20/group) at doses of 0 (0.5% methylcellulose in deionized water), 125, 250, and 500 mg/kg/day once daily via oral gavage during organogenesis (GD 7 to 19). Assessment of toxicity was based on mortality, clinical observations, body weights, food consumption, and necropsy and cesarean section findings. In addition, blood samples were collected for toxicokinetic evaluation of compound 16 and compound 1 from similarly dosed animals (4/group).

Data set [4] has as its system pregnant New Zealand White (NZW) rabbits. The data set is described as above. As to the method: as §3
The test system of the next data set is SARS-CoV-2 Fluc. The data set is classed as cell-based.
Data set [5] has as its system pregnant Wistar Han rats. The experiment in a line: Enhanced dose range-finding embryo-fetal development study of compound 16 by oral gavage in Wistar Han rats. Conditions: rat, in vivo. Here is the method: (§4) The effects of compound 16 on pregnant Wistar Han rats and development of the embryo consequent to exposure of the female from implantation to closure of the hard palate were evaluated. Compound 16 was administered to 4 groups of presumed pregnant rats (8/group) at doses of 0 (vehicle), 125, 250, and 500 mg/kg/day via once daily gavage administration during organogenesis (gestation days [GD] 6 to 17) at a dose volume of 5 mL/kg. Additional pregnant rats were similarly dosed for toxicokinetic assessment of compound 16 and compound 1. Assessment of toxicity to the pregnant rats was based on mortality, clinical observations, body weights and food consumption. Rats were necropsied and cesarean sectioned on GD 21. An examination of the external features of the carcass; external body orifices; abdominal, thoracic, pelvic, and oral cavities; organs; and tissues was performed. Any macroscopic abnormalities were noted. Pregnancy status was determined. The uterus from each pregnant animal was excised, weighed, and examined for the number and placement of live and dead fetuses, the number of early or late resorptions, and any abnormalities. The right and left ovaries from each pregnant female were examined for the number of corpora lutea. Each fetus was sexed, weighed, and examined for external abnormalities. […]

Assay in data set [6]: as above
Conditions: female, Wistar Han, rat, in vivo, po. As to the method: as §4

The conditions of data set [7]: female, New Zealand White, rabbit, in vivo, po, 125 mg/kg/day. As to the method: as §3
The conditions of data set [8]: female, Wistar Han, rat, in vivo, po, 250 mg/kg/day. Here is the method:
as §4

With `CC(C)C(=O)OC[C@H]1O[C@@](C#N)(c2ccc3c(N)ncnn23)[C@H](O)[C@@H]1O` [Compound 16], the “effects on intrauterine growth or survival” value in the data set with pregnant Wistar Han rats [1] is given as “No compound 16-related effects”. Besides, the “external, visceral or skeletal malformations or variations” value with pregnant Wistar Han rats [1] is reported as “No compound 16-related external, visceral or skeletal malformations or variations”. For the same molecule, the NOAEL in [2] was found to be 250 mg/kg/day; in data set [3], 125 mg/kg/day; in data set [6], 250 mg/kg/day. In data set [4] (rabbit fetuses), the skeletal malformations result is given as “No compound 16-related skeletal malformations”. For the same molecule, the fetal visceral findings entry in data set [4] (rabbit, in vivo, 250 mg/kg/day) was “increased rates of ventricular septum defects, large or small heart ventricles, dilated or malpositioned aortas, retroesophageal aortic arches, retroesophageal subclavian arteries, abnormal lobulation of the liver”. Further, the “Bliss independence consensus score, Average of Replicates” value (“Bliss independence consensus score” for short) with SARS-CoV-2 Fluc worked out at 6.15±2.16. For the same molecule, in the data set on SARS-CoV-2 Fluc, the “drug combination effect by Bliss score” value is given as “Additive”. Besides, the “tolerability of dose level” value with pregnant Wistar Han rats [5] was “not tolerated”.

As to `CC(C)C(=O)OC[C@H]1O[C@@H](n2ccc(NO)nc2=O)[C@H](O)[C@@H]1O` [molnupiravir, Molnupiravir, reference compound], in the data set on SARS-CoV-2 Fluc, the “Bliss independence consensus score” value is given as −2.47 and the “drug combination effect by Bliss score” value is recorded as “Additive”.

For the molecule `N#C[C@@]1(c2ccc3c(N)ncnn23)O[C@H](CO)[C@@H](O)[C@H]1O` [Compound 1], the “compound 1 AUC0-24h exposure” value in [7] was 64,100 ng*h/mL. Moreover, in the data set with SARS-CoV-2 Fluc, the “Bliss independence consensus score” value is 8.00±1.09 and the “drug combination effect by Bliss score” value is “Additive”. The “compound 1 AUC0-24h exposure” value in [8] is recorded as 183,000 ng*h/mL.

Regarding `CC(C)(C)[C@H](NC(=O)C(F)(F)F)C(=O)N1C[C@H]2[C@@H]([C@H]1C(=O)N[C@H](C#N)C[C@@H]1CCNC1=O)C2(C)C` [nirmatrelvir, reference compound], in the data set on SARS-CoV-2 Fluc, the “Bliss independence consensus score” value was found to be 0.13±1.53 and the “drug combination effect by Bliss score” value is recorded as “Additive”.
